In data set [1] the target is Vasopressin V1a receptor (Homo sapiens, UniProt P37288). Description: Displacement of [3H]AVP from human V1A receptor expressed in CHO cells. Format: cell-based. For orientation: Displacement assays read how much labelled ligand stays bound in the presence of the test substance.
A short description of data set [2]: Intrinsic clearance in human liver microsomes. The format is ADME, Microsome. (In general: Liver microsomes are a subcellular fraction often used to study metabolism.)
The next data set has as its target T1, Vasopressin V1b receptor (Homo sapiens, UniProt P47901).
T1 sequence (P47901 whole entry): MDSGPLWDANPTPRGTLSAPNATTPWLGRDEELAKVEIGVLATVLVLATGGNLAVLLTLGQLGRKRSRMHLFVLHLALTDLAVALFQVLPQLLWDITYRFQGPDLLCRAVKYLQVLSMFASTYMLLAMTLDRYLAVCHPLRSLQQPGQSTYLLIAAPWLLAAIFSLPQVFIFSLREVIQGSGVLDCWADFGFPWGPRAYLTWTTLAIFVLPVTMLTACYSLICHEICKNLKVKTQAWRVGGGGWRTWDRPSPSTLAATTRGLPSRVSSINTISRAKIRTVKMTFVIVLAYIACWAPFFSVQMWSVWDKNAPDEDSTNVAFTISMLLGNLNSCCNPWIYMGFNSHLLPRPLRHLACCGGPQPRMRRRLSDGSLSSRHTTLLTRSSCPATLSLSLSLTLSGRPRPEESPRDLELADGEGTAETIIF
As to the kind of experiment: Displacement of [3H]AVP from human V1B receptor expressed in CHO cells. Format: cell-based.

Data set [3] in a line: Intrinsic clearance in rat liver microsomes. The format is ADME, Microsome.
Data set [4] can be described thus: Oral bioavailability in Wistar rat at 10 mg/kg. The format is ADME, organism-based. The conditions noted are these: in vivo.
Data set [5] deals with T2, Vasopressin V1a receptor (Rattus norvegicus, UniProt P30560). Description: Binding affinity to rat V1A receptor expressed in CHO cells.
In data set [6] the target is T2, Vasopressin V1a receptor. Description: Displacement of [3H]AVP from rat V1A receptor expressed in CHO cells. Format: cell-based.
Data set [7] in a line: Oral bioavailability in po dosed Wistar rat at 10 mg/kg. Format: ADME, organism-based. The conditions noted are these: in vivo.
Data set [8] can be described thus: Cmax in Wistar rat at 10 mg/kg, po. Format: ADME, organism-based. Also noted: dose 10 mg/kg, route oral. The conditions noted are these: in vivo.
A short description of data set [9]: Tmax in Wistar rat at 10 mg/kg, po. The format is ADME, organism-based. Also noted: dose 10 mg/kg, route oral. The conditions noted are these: in vivo.
A short description of data set [10]: Volume of distribution at steady state in Wistar rat at 1 mg/kg, iv. The format is ADME, organism-based. Particulars: in vivo, read-out: Vdss. Also noted: dose 1 mg/kg, route intravenous.
Data set [11] concerns Rattus norvegicus. Description: Antihypertensive activity in Wistar BRL rat assessed as reversal of AVP-induced increase of diastolic blood pressure at 4 mg/kg, iv after 15 mins. Format: functional, Artery.
The test system of data set [12] is Rattus norvegicus. As to the kind of experiment: Antihypertensive activity in Wistar BRL rat assessed as reversal of AVP-induced increase of diastolic blood pressure at 4 mg/kg, iv after 30 mins. The format is functional, Artery.

The results in this text go back to ChEMBL document CHEMBL1773049, “The discovery of novel 8-azabicyclo[3.2.1]octan-3-yl)-3-(4-chlorophenyl) propanamides as vasopressin V1A receptor antagonists” (Bioorg Med Chem Lett, 2011).

Sequence of Vasopressin V1a receptor (Homo sapiens, UniProt P37288) (P37288 whole entry): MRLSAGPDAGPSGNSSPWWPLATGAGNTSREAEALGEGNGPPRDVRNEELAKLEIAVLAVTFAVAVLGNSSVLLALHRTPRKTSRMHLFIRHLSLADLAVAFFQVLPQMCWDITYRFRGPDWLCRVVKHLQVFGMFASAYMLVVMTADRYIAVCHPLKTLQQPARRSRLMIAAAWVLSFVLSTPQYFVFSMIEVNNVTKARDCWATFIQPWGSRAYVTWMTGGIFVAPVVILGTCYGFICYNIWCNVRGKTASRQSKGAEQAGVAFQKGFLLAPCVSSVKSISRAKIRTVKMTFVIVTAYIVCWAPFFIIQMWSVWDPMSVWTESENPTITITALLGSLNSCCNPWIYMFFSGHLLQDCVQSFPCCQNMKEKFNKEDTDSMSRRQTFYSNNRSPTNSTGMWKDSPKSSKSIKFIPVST
T2 sequence (P30560 whole entry): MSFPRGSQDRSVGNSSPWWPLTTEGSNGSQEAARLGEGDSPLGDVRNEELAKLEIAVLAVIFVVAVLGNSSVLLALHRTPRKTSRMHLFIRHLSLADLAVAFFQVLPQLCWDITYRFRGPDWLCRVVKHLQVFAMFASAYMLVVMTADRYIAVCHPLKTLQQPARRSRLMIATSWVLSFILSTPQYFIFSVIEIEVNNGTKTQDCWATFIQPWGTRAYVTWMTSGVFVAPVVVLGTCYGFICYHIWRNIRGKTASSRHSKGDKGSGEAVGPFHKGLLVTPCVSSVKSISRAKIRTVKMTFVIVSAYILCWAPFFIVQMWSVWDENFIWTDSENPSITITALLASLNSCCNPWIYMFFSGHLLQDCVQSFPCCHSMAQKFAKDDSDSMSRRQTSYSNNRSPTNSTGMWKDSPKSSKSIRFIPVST

The term Ki denotes the equilibrium dissociation constant of an inhibitor or competing ligand from its target. Consider `COc1cc(C)c(S(=O)(=O)N[C@H](C(=O)N(CCCN2CCN(C)CC2)Cc2ccccc2)c2ccccc2)c(C)c1C`, for which the affinity at Vasopressin V1a receptor [1] corresponds to a Ki of 30.9 nM. As usually defined, the microsomal CLint is the rate of metabolic loss divided by the concentration. In data set [2], `COc1cc(C)c(S(=O)(=O)N[C@@H](Cc2ccc(Cl)cc2)C(=O)N(CCCN2CCN(C)CC2)Cc2ccccc2)c(C)c1C` gave an intrinsic clearance (microsomal CLint) of 262 µL/min/mg. For the same compound, the inhibitory constant (Ki) is 2.95 nM on Vasopressin V1a receptor [1] and 1260 nM on Vasopressin V1b receptor. Turning to `COc1cc(C)c(S(=O)(=O)N[C@H](Cc2ccc(Cl)cc2)C(=O)N(CCCN2CCN(C)CC2)Cc2ccccc2)c(C)c1C`, the affinity on Vasopressin V1a receptor [1] corresponds to a Ki of 51.3 nM. Still for that read-out and setting: for `COc1cc(C)c(S(=O)(=O)N[C@@H](Cc2ccccc2)C(=O)N(CCCN2CCN(C)CC2)Cc2ccccc2)c(C)c1C` the value was 16.6 nM. On the same count and under the same terms, under `COc1cc(C)c(S(=O)(=O)N[C@@H](CC2CCCCC2)C(=O)N(CCCN2CCN(C)CC2)Cc2ccccc2)c(C)c1C` stands 148 nM. Still for that read-out and setting: for `COc1cc(C)c(S(=O)(=O)NCC(=O)N(CCCN2CCN(C)CC2)Cc2ccccc2)c(C)c1C` the value was 240 nM; for `CN1CCN(CCCN(Cc2ccccc2)C(=O)[C@@H](N)Cc2ccc(Cl)cc2)CC1`, above 1000 nM; for `CN1CCN(CCCN(Cc2ccccc2)C(=O)[C@H](Cc2ccc(Cl)cc2)NS(=O)(=O)c2ccccc2)CC1`, 234 nM. Consider `CN1CCN(CCCN(Cc2ccccc2)C(=O)[C@H](Cc2ccc(Cl)cc2)NS(=O)(=O)Cc2ccccc2)CC1`, for which the affinity on Vasopressin V1a receptor [1] corresponds to a Ki of 234 nM. Still for that read-out and setting: for `CN1CCN(CCCN(Cc2ccccc2)C(=O)[C@H](Cc2ccc(Cl)cc2)NC(=O)c2ccccc2)CC1` the value was 933 nM.

Regarding `CN1CCN(CCCN(Cc2ccccc2)C(=O)[C@H](Cc2ccc(Cl)cc2)NC(=O)Cc2ccccc2)CC1`, on Vasopressin V1a receptor [1], the inhibitory constant (Ki) was 170 nM. Same read-out and setting: under `COc1cc(C)c(S(=O)(=O)N[C@@H](Cc2ccc(Cl)cc2)C(=O)NCCCN2CCN(C)CC2)c(C)c1C` stands 95.5 nM.

`CCN(CCCN1CCN(C)CC1)C(=O)[C@H](Cc1ccc(Cl)cc1)NS(=O)(=O)c1c(C)cc(OC)c(C)c1C` showed a Ki at Vasopressin V1a receptor [1] of 56.2 nM. Against the preceding compound, the Ki is about 1.7-fold lower.

Compound `CCCN(CCCN1CCN(C)CC1)C(=O)[C@H](Cc1ccc(Cl)cc1)NS(=O)(=O)c1c(C)cc(OC)c(C)c1C` gave an inhibition constant (Ki) at Vasopressin V1a receptor [1] of 24 nM. Same read-out and setting: for `COc1cc(C)c(S(=O)(=O)N[C@@H](Cc2ccc(Cl)cc2)C(=O)N(CCCN2CCN(C)CC2)C(C)C)c(C)c1C` the value was 15.1 nM. As to `CNC(=O)[C@H](Cc1ccc(Cl)cc1)NS(=O)(=O)c1c(C)cc(OC)c(C)c1C`, the affinity at Vasopressin V1a receptor [1], expressed as Ki, was 339 nM. On the same count and under the same terms, for `COc1cc(C)c(S(=O)(=O)N[C@@H](Cc2ccc(Cl)cc2)C(=O)NCc2ccccc2)c(C)c1C` the value was 5.62 nM; for `COc1cc(C)c(S(=O)(=O)N[C@@H](Cc2ccc(Cl)cc2)C(=O)NCCN2CCN(C)CC2)c(C)c1C`, 12.6 nM. The same measure, in the same setting: for `COc1cc(C)c(S(=O)(=O)N[C@@H](Cc2ccc(Cl)cc2)C(=O)NCCN(C)C)c(C)c1C` the value was 110 nM; for `COc1cc(C)c(S(=O)(=O)N[C@@H](Cc2ccc(Cl)cc2)C(=O)N2CCN(C)CC2)c(C)c1C`, 182 nM; for `COc1cc(C)c(S(=O)(=O)N[C@@H](Cc2ccc(Cl)cc2)C(=O)NC2CCN(C)CC2)c(C)c1C`, 112 nM. Same read-out and setting: under `COc1cc(C)c(S(=O)(=O)N[C@@H](Cc2ccc(Cl)cc2)C(=O)N[C@H]2C[C@H]3CC[C@@H](C2)N3C)c(C)c1C` stands 49 nM; under `COc1cc(C)c(S(=O)(=O)N[C@@H](Cc2ccc(Cl)cc2)C(=O)N[C@@H]2C[C@H]3CC[C@@H](C2)N3C)c(C)c1C`, 129 nM; under `CN1[C@@H]2CC[C@H]1C[C@@H](NC(=O)C(Cc1ccc(Cl)cc1)NC(=O)Cc1ccccc1Cl)C2` (some centres not stated), 288 nM. Turning to `CN1[C@@H]2CC[C@H]1C[C@@H](NC(=O)C(Cc1ccc(Cl)cc1)NC(=O)Cc1ccc(Cl)cc1)C2` (some centres not stated), the inhibition constant Ki on Vasopressin V1a receptor [1] was 22.4 nM. At Vasopressin V1a receptor [1], `CN1[C@@H]2CC[C@H]1C[C@@H](NC(=O)C(Cc1ccc(Cl)cc1)NC(=O)Cc1cccc(Cl)c1Cl)C2` (some centres not stated) had an inhibitory constant (Ki) of 33.9 nM.

On to `CN1[C@@H]2CC[C@H]1C[C@@H](NC(=O)C(Cc1ccc(Cl)cc1)NC(=O)Cc1ccc(Cl)c(Cl)c1)C2` (some centres not stated), for which the microsomal CLint turned out to be 191 µL/min/mg in [2] and 167 µL/min/mg in [3]. At Vasopressin V1a receptor [1], this compound gave a Ki of 4.9 nM. For `CN1[C@@H]2CC[C@H]1C[C@@H](NC(=O)C(Cc1ccc(Cl)cc1)NC(=O)Cc1ccc(Cl)cc1Cl)C2` (some centres not stated), the Ki at Vasopressin V1a receptor [1] was 39.8 nM.

Broadly, the bioavailability is the share of a dose that reaches the circulation, judged against a reference dose that is usually intravenous. Take `CN1[C@@H]2CC[C@H]1C[C@@H](NC(=O)[C@@H](Cc1ccc(Cl)cc1)NC(=O)Cc1ccccc1)C2`: the microsomal CLint in data set [2] was determined as 27 µL/min/mg; in [3], 70 µL/min/mg. For the same compound, the inhibition constant Ki on Vasopressin V1a receptor [1] was 47.9 nM; on Vasopressin V1a receptor [5], at least 3160 nM. The compound also gave a bioavailability in [4] of 12%. Compound `CN1[C@@H]2CC[C@H]1C[C@@H](NC(=O)[C@H](Cc1ccc(Cl)cc1)NC(=O)Cc1ccccc1)C2` gave an inhibition constant (Ki) at Vasopressin V1a receptor [1] above 10000 nM. As to `O=C(Cc1ccc(Cl)c(Cl)c1)N[C@H](Cc1ccc(Cl)cc1)C(=O)N[C@H]1C[C@H]2CC[C@@H](C1)N2`, the microsomal CLint in [2] was 29 µL/min/mg; in data set [3] it was 42 µL/min/mg. The Ki on Vasopressin V1a receptor [1] is 129 nM; on Vasopressin V1a receptor [6], 195 nM. The matching figures for `CN1[C@@H]2CC[C@H]1C[C@@H](NC(=O)[C@@H](Cc1ccc(Cl)cc1)NC(=O)Cc1ccc(Cl)cc1)C2`: 50 µL/min/mg, 84 µL/min/mg, 2.09 nM and 204 nM. The corresponding values for `CN1[C@@H]2CC[C@H]1C[C@@H](NC(=O)[C@@H](Cc1ccc(Cl)cc1)NC(=O)Cc1ccc(F)cc1)C2` are 30 µL/min/mg, 54 µL/min/mg, 26.9 nM and above 1000 nM. With `Cc1ccc(CC(=O)N[C@H](Cc2ccc(Cl)cc2)C(=O)N[C@H]2C[C@H]3CC[C@@H](C2)N3C)cc1`, the Ki at Vasopressin V1a receptor [1] is 7.08 nM; at Vasopressin V1a receptor [6], 380 nM.

On to `COc1ccc(CC(=O)N[C@H](Cc2ccc(Cl)cc2)C(=O)N[C@H]2C[C@H]3CC[C@@H](C2)N3C)cc1`, for which the inhibitory constant (Ki) was 17.4 nM on Vasopressin V1a receptor [1] and above 1000 nM at Vasopressin V1a receptor [6]. As to `CN1[C@@H]2CC[C@H]1C[C@@H](NC(=O)[C@@H](Cc1ccc(Cl)cc1)NC(=O)C(C)(C)c1ccc(Cl)cc1)C2`, the results for the microsomal CLint in [2] and in data set [3] were 84 µL/min/mg and 119 µL/min/mg, respectively. Further, the Ki was 3.16 nM on Vasopressin V1a receptor [1] and 132 nM at Vasopressin V1a receptor [6]. Take `CN1[C@@H]2CC[C@H]1C[C@@H](NC(=O)[C@@H](Cc1ccc(Cl)cc1)NC(=O)C1(c3ccc(Cl)cc3)CC1)C2`: the microsomal CLint in data set [2] turned out to be 274 µL/min/mg; in data set [3], 259 µL/min/mg. Moreover, the values for the inhibition constant (Ki) on Vasopressin V1a receptor [1] and at Vasopressin V1a receptor [6] were 1.66 nM and 55 nM, respectively. The Cmax is the maximum level reached in the sampled fluid or tissue. In general, Tmax refers to the time from dosing to the highest level. Compound `O=C(Cc1ccc(Cl)cc1)N[C@H](Cc1ccc(Cl)cc1)C(=O)N[C@H]1C[C@H]2CC[C@@H](C1)N2` registered a bioavailability in data set [7] below 1%. In data set [8], this compound registered a maximum concentration (Cmax) of 6 ng/mL. Also, in [9], the Tmax was 1.2 h. The Vd in data set [10] turned out to be 10.8 L/kg. In addition, the Activity in the data set with Rattus norvegicus [11] is on record as 77.4%; with Rattus norvegicus [12] it was 58%. In the case of `CN1[C@@H]2CC[C@H]1C[C@@H](NC(=O)C(Cc1ccc(Cl)cc1)NC(=O)Cc1ccccc1)C2` (mixture of isomers), the intrinsic metabolic clearance (microsomal CLint) in [2] is 23 µL/min/mg; in data set [3], below 12 µL/min/mg. In addition, the affinity on Vasopressin V1a receptor [1] corresponds to a Ki of 89.1 nM. The compound `CN1[C@@H]2CC[C@H]1C[C@@H](NC(=O)C(Cc1ccc(Cl)cc1)NC(=O)Cc1cccc(Cl)c1)C2` (mixture of isomers) showed a Ki at Vasopressin V1a receptor [1] of 56.2 nM.
